Test results from patent publication US9517204B2, “Pharmaceutical composition for inhalation” (SHIONOGI & CO., LTD., priority 2011, dated 2016).
Where two headings read alike, the source gives them in different places.

Columns and labels:
[1] = Reactive oxygen species (ROS) assay, photoreactivity testing; format: physicochemical
Source text: This assay was established to monitor the generation of ROS, such as singlet oxygen and superoxide, from photoirradiated chemicals, and ROS generation would be indicative of the photochemical reactivity of tested chemicals.
In contrast, 8-methoxypsoralen (MOP) is known as a phototoxic and photoreactive chemical. Although 8-MOP slightly exceeded pirfenidone in ROS generation, both chemicals were identified to be photoreactive, as shown in FIG. 3 (A). When such photoreactivity and photoirritability are taken into consideration, pirfenidone can be said to raise concerns about photostability.

[2] = Pharmacokinetics (3): skin transmigration in repeated-dose administrations; format: in vivo
Description: Results of having monitored the amount of skin transmigration of pirfenidone in repeated-dose administrations by oral and inhalation are shown in FIG. 8. Although a temporary elevation of the pirfenidone concentration in the skin was observed by pirfenidone oral administration (30, 160 mg/kg) also in repeated-dose administrations in every 12 hours, the elevation disappeared in about 6 hours after administration. […] From this, the systemic side effect is considered to be avoidable even when the respirable formulation is used repeatedly.

[3] = Pharmacokinetics 2: transmigration of pirfenidone to tissue after single-dose administration; design: species or system rats; conditions: rat, in vivo, po, 160 mg/kg
Description: Similarly to Example 5, single-dose administrations of pirfenidone orally and the formulation 1 by inhalation were performed in rats, and the amount of transmigration of pirfenidone to each tissue was monitored by UPLC/ESI-MS. When compared in dose (160 mg/kg) having an anti-inflammatory activity, while the amount of skin-transmigration of pirfenidone in 1 hour after administration was about 50 ng/g-tissue via inhalation (1 mg/kg), the amount via oral administration (160 mg/kg) was about 20 μg/g-tissue. From this, while the amount of medication in inhalation is 1/160 in the case of oral administration, the amount of skin transmigration in inhalation decreases to 1/400 of oral formulation. […] Thus, the respirable formulation of the present invention has an excellent effect.

[4] = patients who have taken the oral agent; cited from earlier work
[5] = Pharmacokinetics (1): plasma and tissues after oral and intratracheal administration; format: in vivo, rats; conditions: for Cmax / MRT / half-life / AUC(0-inf): rat
Description: However, the possibility of risk reduction of photodermatosis is not clear. In general, since drug-induced photodermatosis appear in the skin and eyes, the specific distribution of drug molecules in the skin and/or eyes could be a key consideration for evaluating the photodermatosis risk. Then, in order to verify the photosafety of the formulation 1, a pharmacokinetic study was undertaken after intratracheal administration of the formulation 1 at a pharmacologically effective dose (1 mg/kg). Additionally, since in the oral administration, both pharmaceutically effective and phototoxic dose (160 mg/kg) and pharmaceutically non-effective and non-phototoxic dose (30 mg/kg) are known, pharmacokinetic parameters were obtained after oral administration at both doses. Concentration-time curves of pirfenidone in the plasma, skin, lung, and eyes were obtained by UPLC/ESI-MS analysis after intratracheal and oral administrations. After oral administration of pirfenidone, plasma and lung concentrations of pirfenidone immediately reached the Cmax within 5 min and these concentrations decreased steadily with half lives of ca. 0.3-0.8 h.

[6] = Photostability testing; format: physicochemical; conditions: simulated sunlight (250 W/m^2)
Description: Here, in respirable formulation of pirfenidone, both liquid and dry powder formulations can be considered in theory. Then, to clarify the photochemical properties in more detail, photostability testing was carried out. […] In general, photosensitive chemicals in a solution state are far more prone to photodegradation than solid samples due to the high permeability of light and increased mobility of photochemically excited molecules and reactive species. From this, taken together with the result shown in FIG. 3 (B), dry powder formulation, rather than liquid formulation, is preferable as a respirable formulation of pirfenidone.

[7] = system: skin; test: Phototoxic reaction in oral administration of pirfenidone (skin color, color difference meter); format: in vivo, rats; conditions: for change of skin color compared to the control group: black light irradiation
Description: Hair of rats were carefully shaved by hair clipper, and pirfenidone was administered orally to the rats (160 mg/kg or 30 mg/kg), and the rats were irradiated with a black light. Colors of the skin before and after the light irradiation were evaluated with a color difference meter.

[8] = 30 mg/kg oral, UV +, after treatment
[9] = 30 mg/kg oral, UV +, initial value
[10] = 30 mg/kg oral, UV −, after treatment
[11] = 30 mg/kg oral, UV −, initial value
[12] = 160 mg/kg oral, UV +, after treatment
[13] = 160 mg/kg oral, UV +, initial value
[14] = 160 mg/kg oral, UV −, after treatment
[15] = 160 mg/kg oral, UV −, initial value

Which “ROS generation (singlet oxygen, superoxide), photoreactivity” value (from here on “ROS generation”) [1] does the source give for `COc1cc(O)c(C(=O)c2ccccc2)cc1S(=O)(=O)O` [Sulisobenzone, sulisobenzone] here?
The value was “no ability to generate ROS”.

Which “time after administration at which the elevation of skin concentration disappeared” value ([2]; oral 30, 160 mg/kg, repeated-dose every 12 hours) does the source give for `Cc1ccc(=O)n(-c2ccccc2)c1` [pirfenidone] here?
The value was “about 6 hours”.

And the accumulation in skin ([2]; oral, repeated-dose administrations)?
Its accumulation in skin is “did not show any accumulation trend”.

And the “ROS generation” value [1]?
Its value is “photoreactive”.

What about the concentration at 1 h [3] of the same compound?
Its concentration at 1 h is roughly 20000 ng/g.

What about the “expression frequency of drug-induced photodermatosis” value [4] of the same compound?
The value was “about 60%”.

What about the “AUC0→∞” value ([5]; eyes, rats, 30 mg/kg, p.o.) of the same compound?
The value was 8.33 ± 0.39 h · μg/g tissue.

What about the “AUC0→∞” value ([5]; eyes, rats, 160 mg/kg, p.o.) of the same compound?
The value was 58.8 ± 1.3 h · μg/g tissue.

And the “AUC0→∞” value ([5]; lung, rats, 30 mg/kg, p.o.)?
Its value is 6.45 ± 0.43 h · μg/g tissue.

And the “AUC0→∞” value ([5]; lung, rats, 160 mg/kg, p.o.)?
Its value is 52.1 ± 1.0 h · μg/g tissue.

What about the Cmax ([5]; po, eyes, rats, 30 mg/kg) of the same compound?
Its Cmax is 3950 ± 300 ng/g.

What about the MRT ([5]; po, eyes, rats, 30 mg/kg) of the same compound?
Its MRT is 1.06 ± 0.13 h.

What about the half-life ([5]; po, eyes, rats, 30 mg/kg, p.o., read-out: t1/2 (converted)) of the same compound?
The half-life was 0.668 ± 0.18 h.

What about the Cmax ([5]; po, eyes, rats, 160 mg/kg) of the same compound?
Its Cmax is 26000 ± 2600 ng/g.

And the MRT ([5]; po, eyes, rats, 160 mg/kg)?
Its MRT is 1.93 ± 0.051 h.

What about the half-life ([5]; po, eyes, rats, 160 mg/kg, p.o., read-out: t1/2 (converted)) of the same compound?
Its half-life is 1.06 ± 0.27 h.

What about the Cmax ([5]; po, lung, rats, 30 mg/kg) of the same compound?
The Cmax was 6460 ± 690 ng/g.

And the MRT ([5]; po, lung, rats, 30 mg/kg)?
The MRT was 0.787 ± 0.16 h.

And the half-life ([5]; po, lung, rats, 30 mg/kg, p.o., read-out: t1/2 (converted))?
Its half-life is 0.799 ± 0.24 h.

And the Cmax ([5]; po, lung, rats, 160 mg/kg)?
The Cmax was 37600 ± 5700 ng/g.

And the MRT ([5]; po, lung, rats, 160 mg/kg)?
Its MRT is 1.32 ± 0.041 h.

What about the half-life ([5]; po, lung, rats, 160 mg/kg, p.o., read-out: t1/2 (converted)) of the same compound?
Its half-life is 0.766 ± 0.16 h.

And the AUC(0-inf) ([5]; po, plasma, rats, 30 mg/kg)?
The AUC(0-inf) was 14100 ± 920 ng·h/mL.

What about the Cmax ([5]; po, plasma, rats, 30 mg/kg) of the same compound?
The Cmax was 19.7 ± 0.93 µg/mL.

What about the MRT ([5]; po, plasma, rats, 30 mg/kg) of the same compound?
The MRT was 0.667 ± 0.094 h.

What about the half-life ([5]; po, plasma, rats, 30 mg/kg, p.o., read-out: t1/2 (converted)) of the same compound?
Its half-life is 0.33 ± 0.02 h.

And the AUC(0-inf) ([5]; po, plasma, rats, 160 mg/kg)?
The AUC(0-inf) was 152000 ± 10000 ng·h/mL.

And the Cmax ([5]; po, plasma, rats, 160 mg/kg)?
Its Cmax is 135 ± 11 µg/mL.

And the MRT ([5]; po, plasma, rats, 160 mg/kg)?
The MRT was 1.05 ± 0.075 h.

And the half-life ([5]; po, plasma, rats, 160 mg/kg, p.o., read-out: t1/2 (converted))?
The half-life was 0.53 ± 0.03 h.

What about the Cmax ([5]; po, skin, rats, 30 mg/kg) of the same compound?
The Cmax was 8160 ± 470 ng/g.

What about the MRT ([5]; po, skin, rats, 30 mg/kg) of the same compound?
The MRT was 1.14 ± 0.12 h.

And the half-life ([5]; po, skin, rats, 30 mg/kg, p.o., read-out: t1/2 (converted))?
Its half-life is 1.07 ± 0.28 h.

What about the Cmax ([5]; po, skin, rats, 160 mg/kg) of the same compound?
Its Cmax is 32900 ± 2600 ng/g.

What about the MRT ([5]; po, skin, rats, 160 mg/kg) of the same compound?
The MRT was 1.7 ± 0.043 h.

And the half-life ([5]; po, skin, rats, 160 mg/kg, p.o., read-out: t1/2 (converted))?
The half-life was 1.06 ± 0.24 h.

What about the half-life ([5]; plasma and lung, oral administration (30 and 160 mg/kg), read-out: half lives) of the same compound?
Its half-life is 0.3 to 0.8 h.

What about the half-life ([5]; skin and eye, after oral dosing, read-out: half-life of elimination phase) of the same compound?
The half-life was 0.7 to 1.1 h.

What about the “time of reaching maximum levels” value ([5]; skin and eye, after oral dosing) of the same compound?
Its value is “ca. 0.5 h”.

And the “AUC0→∞” value ([5]; skin, rats, 30 mg/kg, p.o.)?
The value was 11.5 ± 0.51 h · μg/g tissue.

What about the “AUC0→∞” value ([5]; skin, rats, 160 mg/kg, p.o.) of the same compound?
Its value is 68.0 ± 1.4 h · μg/g tissue.

And the degradation ([6]; powder)?
Its degradation is “no significant degradation”.

And the “apparent first-order degradation rate” value ([6]; solution)?
Its value is 0.31 ± 0.03 h⁻¹.

What about the “ΔE, evaluation of color change” value ([7]; 30 mg/kg oral, UV +) of the same compound?
Its value is 2.40 ± 0.20.

What about the “L*” value [7, 8] of the same compound?
Its value is 72.26.

What about the “a*” value [7, 8] of the same compound?
Its value is 2.81.

And the “b*” value [7, 8]?
The value was 5.72.

And the “L*” value [7, 9]?
Its value is 72.90.

What about the “a*” value [7, 9] of the same compound?
Its value is 1.27.

And the “b*” value [7, 9]?
Its value is 4.14.

What about the “ΔE, evaluation of color change” value ([7]; 30 mg/kg oral, UV −) of the same compound?
The value was 1.47 ± 0.27.

And the “L*” value [7, 10]?
Its value is 71.56.

What about the “a*” value [7, 10] of the same compound?
Its value is 1.54.

What about the “b*” value [7, 10] of the same compound?
Its value is −0.36.

And the “L*” value [7, 11]?
Its value is 70.16.

And the “a*” value [7, 11]?
The value was 1.19.

And the “b*” value [7, 11]?
The value was −0.18.

What about the “change of skin color compared to the control group” value ([7]; 30 mg/kg oral) of the same compound?
The value was “significant change was not observed”.

And the photodermatosis ([7]; 30 mg/kg orally to rat)?
The photodermatosis was “photodermatosis was not caused”.

And the “ΔE, evaluation of color change” value ([7]; 160 mg/kg oral, UV +)?
The value was 3.97 ± 0.59.

What about the “L*” value [7, 12] of the same compound?
The value was 72.35.

And the “a*” value [7, 12]?
Its value is 2.06.

And the “b*” value [7, 12]?
Its value is 9.17.

What about the “L*” value [7, 13] of the same compound?
Its value is 71.05.

What about the “a*” value [7, 13] of the same compound?
The value was 0.89.

What about the “b*” value [7, 13] of the same compound?
Its value is 5.67.

And the “ΔE, evaluation of color change” value ([7]; 160 mg/kg oral, UV −)?
Its value is 1.69 ± 0.24.

What about the “L*” value [7, 14] of the same compound?
Its value is 71.04.

And the “a*” value [7, 14]?
Its value is −1.04.

What about the “b*” value [7, 14] of the same compound?
Its value is 4.88.

What about the “L*” value [7, 15] of the same compound?
Its value is 70.59.

And the “a*” value [7, 15]?
The value was 0.09.

What about the “b*” value [7, 15] of the same compound?
Its value is 3.67.

And the “change of skin color compared to the control group” value ([7]; 160 mg/kg oral)?
The value was “Change of skin color was intentionally observed”.

With `COc1c2occc2cc2ccc(=O)oc12` [Formulation 8-MOP, 8-methoxypsoralen] as the compound, how does the “ROS generation” value ([1]; exposed to simulated sunlight (250 W/m^2)) read?
The value was “photoreactive”.
